# Laboratory results published in patent US9295624B2, “Amide derivative and whitening agent” (AJINOMOTO CO. INC., priority 2009, dated 2016).
# Tested on: B16 melanom
# Assay: Cytotoxicity test (neutral red assay)
# Assay type: cell-based
# Conditions: neutral red assay after melanin test, absorbance at 540 nm
# Protocol: After measurement of the absorbance in the melanin production suppression test of Experimental Example 1, the evaluation sample solution was removed from the plate, and each well was rinsed with DMEM (200 μl, high glucose, containing 10% serum). A medium containing NR (neutral red) was added to each well at 200 μl/well, and the plate was left standing for 2 hours at 37° C., 5% CO2 under a saturated vapor. The medium was removed, and a washing fixative solution (mixture of equal amounts of 2 wt % calcium chloride solution and 2 wt % formalin solution) was added at 200 μl/well. After 1 minute, the washing fixative solution was removed. An NR extract (acetic acid-ethanol, 200 μl/well) was added, and the mixture was shaken in a plateshaker for 15 minutes. NR uptake by viable cells was examined by measuring the absorbance of the NR extract at 540 nm by a microplatereader (Benchmark microplatereader, manufactured by BIORAD). The cytotoxicity of each sample was calculated as a relative percentage of the absorbance of NR extract of the cells added with a given concentration of each sample to the measurement value (absorbance) of a control NR extract (no sample) as 100%.
row,SMILES,cytotoxicity (NR uptake by viable cells)
1,O=C(NCCc1c[nH]c2ccc(O)cc12)c1cccc(O)c1O [Example 32],showed cytotoxicity
2,O=C(NCCc1c[nH]c2ccc(O)cc12)c1ccc(O)cc1O [Example 33],showed cytotoxicity

# Tested on: B16 melanom
# Assay: Melanin production suppression test
# Assay type: cell-based
# Conditions: B16 melanoma cells, 3 days incubation, absorbance at 450 nm of medium, control = 100%; read-out: 50% melanin production-suppressive concentration IC50
# Protocol: B16 melanom (purchased from Dainippon Sumitomo Pharma Co., Ltd.) was cultured in DMEM (Dulbecco's Modified Eagle Medium, high glucose, containing 10% serum). After confluent, the cells were trypsinized and seeded in a 96-well plate. On the following day, after adhesion of the cells to the plate, the medium was replaced with DMEM containing each evaluation sample (control (no sample addition), sample of each Production Example) at a given evaluation concentration (diluted from […] according to sample), and the cells were incubated for 3 days. The 96-well plate was shaken in a plateshaker for 5 minutes, the absorbance at 450 nm was measured by a microplatereader (Benchmark microplatereader, manufactured by BIORAD), and the amount of melanin in the medium in each well was compared. The absorbance at 3 days after addition of a given concentration of each sample was shown in relative percentage based on the measurement value (absorbance) of control (no sample addition) as 100%. As Comparative Example, a similar test was performed using kojic acid (KoA), 4-hexylresorcinol, CS (N-(p-coumaroyl)serotonin or N-[2-(5-hydroxy-1H-indol-3-yl)ethyl]-3-(4-hydroxyphenyl)-2-propenamide) and FS (N-feruloylcoumaroylserotonin or N-[2-(5-hydroxy-1H-indol-3-yl)ethyl]-3-(4-hydroxy-3-methoxyphenyl-2-propenamide). The results are shown in FIGS. 1 to 5. The concentration necessary for suppressing production of melanin in each sample by 50%, based on the amount of melanin in the control as 100%, was calculated as 50% melanin production-suppressive concentration IC50 (μM). The results are shown in Table 2.
# Kojic acid (KoA) used was purchased from Sigma-Aldrich Japan K.K., 4-n-hexylresorcinol used was purchased from TOKYO CHEMICAL INDUSTRY CO., LTD., and CS and FS used were synthesized by Ajinomoto Co., Inc.
row,IC50 [µM],SMILES
1,42.4,"COc1cc(C=CC(=O)NCCc2c[nH]c3ccc(O)cc23)ccc1O [FS, reference compound]"

# Same assay, conditions: Mus musculus, 72 h; B16 melanoma cells, 3 days incubation, absorbance at 450 nm of medium, control = 100%; read-out: 50% melanin production-suppressive concentration IC50
row,SMILES,IC50 [µM]
1,"CCCCCCc1ccc(O)cc1O [4-hexylresorcinol, reference compound]",23.5
2,"O=C(C=Cc1ccc(O)cc1)NCCc1c[nH]c2ccc(O)cc12 [CS, N-[2-(5-hydroxy-1H-indol-3-yl)ethyl]-3-(4-hydroxyphenyl)-2-propenamide, reference compound]",28.5
3,O=C(/C=C/c1ccc(O)cc1)NCCc1c[nH]c2ccccc12 [Example 13],21.5
4,COc1ccc(CCNC(=O)/C=C/c2ccc(O)cc2)cc1 [Example 24],33.3
5,O=C(NCCc1c[nH]c2ccc(O)cc12)c1cc(O)cc(O)c1 [Example 36],22.4
6,"O=c1cc(CO)occ1O [kojic acid, reference compound]",315

# More lines, now with the values ahead:
row,IC50 [µM],SMILES
1,10.7,"O=C(/C=C/c1ccc(O)cc1O)NCCc1c[nH]c2ccc(O)cc12 [Example 4, N-[2-(5-hydroxy-1H-indol-3-yl)ethyl]-3-(2,4-dihydroxyphenyl)-2-propenamide]"
2,14.6,"Cc1cc(/C=C/C(=O)NCCc2c[nH]c3ccc(O)cc23)ccc1O [Example 17, N-[2-(5-hydroxy-1H-indol-3-yl)ethyl]-3-(3-methyl-4-hydroxyphenyl)-2-propenamide]"
3,17.1,O=C(/C=C/c1ccc(O)cc1O)NCCc1c[nH]c2ccccc12 [Example 30]
4,1.9,"O=C(NCCc1c[nH]c2ccc(O)cc12)c1ccc(O)c(O)c1 [Reference Example 2, reference compound]"
